# Test results from US10758534B2 (Vertex Pharmaceuticals Incorporated, priority 2014, dated 2020).
# Target: T1, F508del (Homo sapiens, UniProt P13569, DEL508-508)
# T1 construct: expressed in transfected cells
# Test: Protocol 2: FRET membrane potential optical assay (VIPR), identification of correction compounds
# Assay type: cell-based
# Details: Table 3; compounds of Table 1 as modulators of CFTR activity; protocol not stated
# Procedure, shortened: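 Single-addition HTS format: F508del-expressing NIH3T3 cells pre-incubated 16 hrs at 37° C. ± compound, with 27° C. culture as positive control. Channel activation by forskolin 10 μM and genistein 20 μM upon switch to gluconate bath, pH 7.4; read-out is FRET-based depolarization signal.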
# T1 sequence (P13569 with tags, fused parts or gaps DEL508-508): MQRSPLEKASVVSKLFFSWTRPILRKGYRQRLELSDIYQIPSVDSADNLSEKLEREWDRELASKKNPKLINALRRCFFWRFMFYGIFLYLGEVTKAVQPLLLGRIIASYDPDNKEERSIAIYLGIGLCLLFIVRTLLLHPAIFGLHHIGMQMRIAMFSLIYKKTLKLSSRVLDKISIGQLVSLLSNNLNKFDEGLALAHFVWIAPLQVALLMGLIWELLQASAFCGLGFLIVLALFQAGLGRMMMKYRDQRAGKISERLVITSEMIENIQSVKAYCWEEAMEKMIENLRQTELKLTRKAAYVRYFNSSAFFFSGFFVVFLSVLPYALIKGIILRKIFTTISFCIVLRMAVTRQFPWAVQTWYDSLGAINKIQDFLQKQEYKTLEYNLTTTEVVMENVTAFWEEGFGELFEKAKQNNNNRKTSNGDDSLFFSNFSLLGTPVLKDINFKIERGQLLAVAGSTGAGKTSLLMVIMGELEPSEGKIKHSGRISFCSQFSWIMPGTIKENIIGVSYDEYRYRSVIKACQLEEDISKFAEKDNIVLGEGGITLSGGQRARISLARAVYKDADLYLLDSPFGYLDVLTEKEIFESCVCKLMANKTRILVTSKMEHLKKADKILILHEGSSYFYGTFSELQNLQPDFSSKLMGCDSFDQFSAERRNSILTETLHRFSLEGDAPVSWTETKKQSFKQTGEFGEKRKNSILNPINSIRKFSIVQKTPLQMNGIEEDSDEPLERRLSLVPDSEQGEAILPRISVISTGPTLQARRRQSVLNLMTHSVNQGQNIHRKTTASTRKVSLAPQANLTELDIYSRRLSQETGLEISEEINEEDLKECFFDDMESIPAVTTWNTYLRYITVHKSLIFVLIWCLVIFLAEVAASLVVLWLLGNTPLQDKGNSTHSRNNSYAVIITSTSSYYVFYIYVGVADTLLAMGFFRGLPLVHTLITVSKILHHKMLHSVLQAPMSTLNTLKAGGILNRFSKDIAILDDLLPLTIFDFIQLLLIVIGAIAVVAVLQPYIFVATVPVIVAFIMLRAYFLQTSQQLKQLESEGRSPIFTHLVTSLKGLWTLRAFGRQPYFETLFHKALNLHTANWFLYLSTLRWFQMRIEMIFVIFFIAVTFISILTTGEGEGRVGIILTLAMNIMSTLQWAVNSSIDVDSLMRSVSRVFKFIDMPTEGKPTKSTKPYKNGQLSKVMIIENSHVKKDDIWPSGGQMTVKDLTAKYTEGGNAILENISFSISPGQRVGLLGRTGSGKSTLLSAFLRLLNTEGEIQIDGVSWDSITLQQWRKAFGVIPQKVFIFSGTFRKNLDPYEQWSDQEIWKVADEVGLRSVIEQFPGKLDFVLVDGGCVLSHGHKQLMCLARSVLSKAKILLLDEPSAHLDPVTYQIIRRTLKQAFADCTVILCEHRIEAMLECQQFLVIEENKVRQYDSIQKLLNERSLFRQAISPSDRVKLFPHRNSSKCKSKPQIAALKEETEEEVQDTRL
row,Structure (SMILES),EC30
1,"Cc1cc(C)c(Oc2nc(C(C)(C)C)ccc2C(=O)NS(=O)(=O)c2ccc[nH]c2=O)c(C)c1 [Compound 51, 6-tert-butyl-N-[(2-oxo-1H-pyridin-3-yl)sulfonyl]-2-(2,4,6-trimethylphenoxy)pyridine-3-carboxamide]",+++ (“+++” means <3 uM)
2,"Cc1cc(C)cc(-c2nc(C(C)(C)C)ccc2C(=O)NS(=O)(=O)c2cccc(N)c2)c1 [Compound 52, N-(3-aminophenyl)sulfonyl-6-tert-butyl-2-(3,5-dimethylphenyl)pyridine-3-carboxamide]",+++ (“+++” means <3 uM)
3,"Cc1cc(C)c(Oc2nc(C3CC3)cc(C(F)(F)F)c2C(=O)NS(=O)(=O)c2cccc(N)n2)c(C)c1 [Compound 54, N-[(6-amino-2-pyridyl)sulfonyl]-6-cyclopropyl-4-(trifluoromethyl)-2-(2,4,6-trimethylphenoxy)pyridine-3-carboxamide]",++ (“++” means between 3 uM and 10 uM)
4,"Cc1ccc(Oc2nc(C(C)(C)C)ccc2C(=O)NS(=O)(=O)c2ccc[nH]c2=O)c(C)c1 [Compound 55, 6-tert-butyl-2-(2,4-dimethylphenoxy)-N-[(2-oxo-1H-pyridin-3-yl)sulfonyl]pyridine-3-carboxamide]",++ (“++” means between 3 uM and 10 uM)
5,"COc1cccc(S(=O)(=O)NC(=O)c2ccc(C(C)(C)C)nc2Oc2c(C)cc(C)cc2C)c1 [Compound 56, 6-tert-butyl-N-(3-methoxyphenyl)sulfonyl-2-(2,4,6-trimethylphenoxy)pyridine-3-carboxamide]",+++ (“+++” means <3 uM)
6,"Cc1cccc(C)c1Cn1nc(C(C)(C)C)cc1C(=O)NS(=O)(=O)c1ccccc1F [Compound 57, 5-tert-butyl-2-[(2,6-dimethylphenyl)methyl]-N-(2-fluorophenyl)sulfonyl-pyrazole-3-carboxamide]",+++ (“+++” means <3 uM)
7,"Cc1ccc(-c2nc(C(C)(C)C)ccc2C(=O)NS(=O)(=O)c2cccc(N)n2)cc1 [Compound 58, N-[(6-amino-2-pyridyl)sulfonyl]-6-tert-butyl-2-(p-tolyl)pyridine-3-carboxamide]",++ (“++” means between 3 uM and 10 uM)
8,"COc1c(C)cccc1S(=O)(=O)NC(=O)c1cc(C(C)(C)C)nn1Cc1c(C)cccc1C [Compound 59, 5-tert-butyl-2-[(2,6-dimethylphenyl)methyl]-N-(2-methoxy-3-methyl-phenyl)sulfonyl-pyrazole-3-carboxamide]",+++ (“+++” means <3 uM)
9,"Cc1c(Cn2nc(C(C)(C)C)cc2C(=O)NS(=O)(=O)c2cccc3[nH]ccc23)cccc1C(F)(F)F [Compound 60, 5-tert-butyl-N-(1H-indol-4-ylsulfonyl)-2-[[2-methyl-3-(trifluoromethyl)phenyl]methyl]pyrazole-3-carboxamide]",+++ (“+++” means <3 uM)
10,"CCOc1cccc(-c2ccc(C(=O)NS(=O)(=O)c3cccc(N)n3)c(Oc3c(C)cc(C)cc3C)n2)c1 [Compound 61, N-[(6-amino-2-pyridyl)sulfonyl]-6-(3-ethoxyphenyl)-2-(2,4,6-trimethylphenoxy)pyridine-3-carboxamide]",+++ (“+++” means <3 uM)
11,"Cc1cc(C)c(Cn2c(C(=O)NS(=O)(=O)c3cccc(N)c3)cc3ccc(C)cc32)c(C)c1 [Compound 62, N-(3-aminophenyl)sulfonyl-6-methyl-1-[(2,4,6-trimethylphenyl)methyl]indole-2-carboxamide]",+++ (“+++” means <3 uM)
12,"Cc1cc(C)c(Cc2nn(C(C)(C)C)cc2C(=O)NS(=O)(=O)c2ccccc2)c(C)c1 [Compound 63, N-(benzenesulfonyl)-1-tert-butyl-3-[(2,4,6-trimethylphenyl)methyl]pyrazole-4-carboxamide]",+++ (“+++” means <3 uM)
13,"Cc1cc(C)c(Oc2nc(-c3cnc(C(C)C)nc3)ccc2C(=O)NS(=O)(=O)c2cccc(N)n2)c(C)c1 [Compound 64, N-[(6-amino-2-pyridyl)sulfonyl]-6-(2-isopropylpyrimidin-5-yl)-2-(2,4,6-trimethylphenoxy)pyridine-3-carboxamide]",++ (“++” means between 3 uM and 10 uM)
14,"Cc1cc(C)c(Cn2c(C(=O)NS(=O)(=O)c3ccncc3)cc3cc(Cl)ccc32)c(C)c1 [Compound 65, 5-chloro-N-(4-pyridylsulfonyl)-1-[(2,4,6-trimethylphenyl)methyl]indole-2-carboxamide]",++ (“++” means between 3 uM and 10 uM)
15,"COCc1ccc(-c2ccc(C(=O)NS(=O)(=O)c3cccc(N)n3)c(Oc3c(C)cc(C)cc3C)n2)cc1 [Compound 66, N-[(6-amino-2-pyridyl)sulfonyl]-6-[4-(methoxymethyl)phenyl]-2-(2,4,6-trimethylphenoxy)pyridine-3-carboxamide]",+++ (“+++” means <3 uM)

# Results, then the compound that gave them:
row,EC30,Structure (SMILES)
1,++ (“++” means between 3 uM and 10 uM),"Cc1ccc2c(c1)cc(C(=O)NS(=O)(=O)c1cccc(N)n1)n2Cc1c(C)cc(C#N)cc1C [Compound 67, N-[(6-amino-2-pyridyl)sulfonyl]-1-[(4-cyano-2,6-dimethyl-phenyl)methyl]-5-methyl-indole-2-carboxamide]"
2,+++ (“+++” means <3 uM),"Cc1cc(C)c(Oc2nc(C(C)(C)C)ncc2C(=O)NS(=O)(=O)c2cccc(N)c2)c(C)c1 [Compound 68, N-(3-aminophenyl)sulfonyl-2-tert-butyl-4-(2,4,6-trimethylphenoxy)pyrimidine-5-carboxamide]"
3,+++ (“+++” means <3 uM),"COCc1cccc(-c2ccc(C(=O)NS(=O)(=O)c3cccc(N)n3)c(Oc3c(C)cc(C)cc3C)n2)c1 [Compound 69, N-[(6-amino-2-pyridyl)sulfonyl]-6-[3-(methoxymethyl)phenyl]-2-(2,4,6-trimethylphenoxy)pyridine-3-carboxamide]"
4,+++ (“+++” means <3 uM),"Cc1cc(C)c(Oc2nc3c(C)cccc3cc2C(=O)NS(=O)(=O)c2cccc(N)n2)c(C)c1 [Compound 70, N-[(6-amino-2-pyridyl)sulfonyl]-8-methyl-2-(2,4,6-trimethylphenoxy)quinoline-3-carboxamide]"
5,+++ (“+++” means <3 uM),"Cc1cc(C)c(Cn2c(C(=O)NS(=O)(=O)c3cccc(N)c3)nc3ccccc32)c(C)c1 [Compound 71, N-(3-aminophenyl)sulfonyl-1-[(2,4,6-trimethylphenyl)methyl]benzimidazole-2-carboxamide]"
6,++ (“++” means between 3 uM and 10 uM),"CCCOc1cc(-c2ccc(C(=O)NS(=O)(=O)c3ccc[nH]c3=O)c(Oc3c(C)cc(C)cc3C)n2)ccc1Cl [Compound 72, 6-(4-chloro-3-propoxy-phenyl)-N-[(2-oxo-1H-pyridin-3-yl)sulfonyl]-2-(2,4,6-trimethylphenoxy)pyridine-3-carboxamide]"
7,+++ (“+++” means <3 uM),"Cc1cc(C)c(CN2Cc3ccccc3C2C(=O)NS(=O)(=O)c2cccc(N)n2)c(C)c1 (stereo not drawn) [Compound 73, N-[(6-amino-2-pyridyl)sulfonyl]-2-[(2,4,6-trimethylphenyl)methyl]isoindoline-1-carboxamide]"
8,+++ (“+++” means <3 uM),"Cc1ccc(-c2nc(C(C)(C)C)ccc2C(=O)NS(=O)(=O)c2ccccc2)cc1 [Compound 74, N-(benzenesulfonyl)-6-tert-butyl-2-(p-tolyl)pyridine-3-carboxamide]"
9,++ (“++” means between 3 uM and 10 uM),"COc1cccc(S(=O)(=O)NC(=O)c2ccc(C(C)(C)C)nc2-c2ccc(C)cc2)n1 [Compound 75, 6-tert-butyl-N-[(6-methoxy-2-pyridyl)sulfonyl]-2-(p-tolyl)pyridine-3-carboxamide]"
10,+++ (“+++” means <3 uM),"Cc1cccc(C)c1Cn1nc(-c2ccc(N(C)C)cc2)cc1C(=O)NS(=O)(=O)c1ccccc1 [Compound 76, N-(benzenesulfonyl)-5-(4-dimethylaminophenyl)-2-[(2,6-dimethylphenyl)methyl]pyrazole-3-carboxamide]"
11,+++ (“+++” means <3 uM),"Cc1cccc(C)c1Cn1nc(C(C)(C)C)cc1C(=O)NS(=O)(=O)c1cccs1 [Compound 77, 5-tert-butyl-2-[(2,6-dimethylphenyl)methyl]-N-(2-thienylsulfonyl)pyrazole-3-carboxamide]"
12,+++ (“+++” means <3 uM),"Cc1cc(C)c(Oc2nc(C(C)(C)C)ccc2C(=O)NS(=O)(=O)c2ccccc2C#N)c(C)c1 [Compound 78, 6-tert-butyl-N-(2-cyanophenyl)sulfonyl-2-(2,4,6-trimethylphenoxy)pyridine-3-carboxamide]"
13,++ (“++” means between 3 uM and 10 uM),"COc1ccccc1S(=O)(=O)NC(=O)C1c2ccccc2CN1Cc1c(C)cc(C)cc1C (stereo not drawn) [Compound 79, N-(2-methoxyphenyl)sulfonyl-2-[(2,4,6-trimethylphenyl)methyl]isoindoline-1-carboxamide]"
14,+++ (“+++” means <3 uM),"Cc1cccc(S(=O)(=O)NC(=O)c2cc(C(C)(C)C)nn2Cc2c(C)cc(C)cc2C)c1 [Compound 80, 5-tert-butyl-N-(m-tolylsulfonyl)-2-[(2,4,6-trimethylphenyl)methyl]pyrazole-3-carboxamide]"
15,+++ (“+++” means <3 uM),"Cc1cccc(C)c1Cn1nc(C(C)(C)C)cc1C(=O)NS(=O)(=O)c1ccc(N)cc1 [Compound 81, N-(4-aminophenyl)sulfonyl-5-tert-butyl-2-[(2,6-dimethylphenyl)methyl]pyrazole-3-carboxamide]"
16,+++ (“+++” means <3 uM),"Cc1cc(C)c(Cn2c(C(=O)NS(=O)(=O)c3ccncc3)cc3c(Cl)cccc32)c(C)c1 [Compound 82, 4-chloro-N-(4-pyridylsulfonyl)-1-[(2,4,6-trimethylphenyl)methyl]indole-2-carboxamide]"
17,+++ (“+++” means <3 uM),"Cc1cccc(C)c1Cn1nc(-c2cccc(Cl)c2)cc1C(=O)NS(=O)(=O)c1ccccc1 [Compound 83, N-(benzenesulfonyl)-5-(3-chlorophenyl)-2-[(2,6-dimethylphenyl)methyl]pyrazole-3-carboxamide]"
18,+++ (“+++” means <3 uM),"Cc1cc(C)c(Cn2nc(C(C)(C)C)cc2C(=O)NS(=O)(=O)c2cccc(O)c2)c(C)c1 [Compound 84, 5-tert-butyl-N-(3-hydroxyphenyl)sulfonyl-2-[(2,4,6-trimethylphenyl)methyl]pyrazole-3-carboxamide]"
